# Results taken from ChEMBL document CHEMBL2151021, “Novel amide- and sulfonamide-based aromatic ethanolamines: effects of various substituents on the inhibition of acid and neutral ceramidases” (Bioorg Med Chem, 2012).
# The source made the active and inactive calls. The rule behind the calls is not given here.
# Legend:
# [1] = target: T1, Acid ceramidase (Homo sapiens) (UniProt Q13510); test: Inhibition of recombinant human aCDase expressed in Sf9 cells using fluorescently-labeled acyl-NBD-C12-ceramide as substrate at 80 uM after 8 hrs by fluorescence assay
# T1 sequence (whole entry): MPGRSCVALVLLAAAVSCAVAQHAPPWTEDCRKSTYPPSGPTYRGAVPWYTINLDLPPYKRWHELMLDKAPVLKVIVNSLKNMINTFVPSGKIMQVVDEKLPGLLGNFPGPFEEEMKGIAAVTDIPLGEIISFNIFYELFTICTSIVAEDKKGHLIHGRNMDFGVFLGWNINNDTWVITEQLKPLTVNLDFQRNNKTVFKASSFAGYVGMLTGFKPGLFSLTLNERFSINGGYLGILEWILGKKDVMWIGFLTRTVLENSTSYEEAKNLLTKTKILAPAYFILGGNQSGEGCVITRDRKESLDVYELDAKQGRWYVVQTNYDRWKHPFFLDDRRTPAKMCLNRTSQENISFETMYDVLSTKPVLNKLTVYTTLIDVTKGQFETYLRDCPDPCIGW
# Acid ceramidase [2] = target: T2, Acid ceramidase (Homo sapiens, UniProt Q13510); test: Inhibition of aCDase
# T2 sequence (Q13510 whole entry): T1 sequence (whole entry)
# Acid ceramidase [3] = target: T2, Acid ceramidase; test: Inhibition of aCDase expressed in human HL60 cell extract; type: cell-free, HL-60
# [4] = target: Neutral ceramidase (Homo sapiens) (UniProt Q9NR71); test: Inhibition of recombinant human nCDase expressed in Sf9 cells using fluorescently-labeled acyl-NBD-C12-ceramide as substrate at 80 uM after 2 hrs by fluorescence assay
# Neutral ceramidase (Homo sapiens), sequence (Q9NR71 whole entry): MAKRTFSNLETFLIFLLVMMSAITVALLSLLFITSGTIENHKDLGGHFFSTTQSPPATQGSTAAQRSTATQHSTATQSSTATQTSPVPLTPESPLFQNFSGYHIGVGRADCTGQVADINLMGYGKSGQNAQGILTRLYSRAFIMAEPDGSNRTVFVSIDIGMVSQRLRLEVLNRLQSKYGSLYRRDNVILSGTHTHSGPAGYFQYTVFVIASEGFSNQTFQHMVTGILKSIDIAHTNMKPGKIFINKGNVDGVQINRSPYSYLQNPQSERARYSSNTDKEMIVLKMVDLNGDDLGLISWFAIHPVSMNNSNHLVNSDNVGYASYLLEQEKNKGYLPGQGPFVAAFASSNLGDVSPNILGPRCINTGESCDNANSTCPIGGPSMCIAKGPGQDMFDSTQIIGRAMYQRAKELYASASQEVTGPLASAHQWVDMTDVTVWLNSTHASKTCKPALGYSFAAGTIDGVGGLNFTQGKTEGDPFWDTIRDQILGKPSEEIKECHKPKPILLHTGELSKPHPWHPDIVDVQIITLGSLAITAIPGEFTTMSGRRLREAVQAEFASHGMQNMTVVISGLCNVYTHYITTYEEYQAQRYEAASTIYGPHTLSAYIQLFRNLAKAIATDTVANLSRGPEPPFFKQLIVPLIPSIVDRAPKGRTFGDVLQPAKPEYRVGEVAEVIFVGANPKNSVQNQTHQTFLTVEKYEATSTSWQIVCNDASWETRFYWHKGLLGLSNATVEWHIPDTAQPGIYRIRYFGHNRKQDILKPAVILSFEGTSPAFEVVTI
# [5] = target: Neutral ceramidase (Homo sapiens) (UniProt Q9NR71); test: Activity of recombinant human nCDase expressed in Sf9 cells at 300 uM after 2 hrs by fluorescence assay
Structure (SMILES),inhibition [1],IC50 (Acid ceramidase [2]) [µM],IC50 (Acid ceramidase [3]) [µM],inhibition [4],Activity [5]
CCCCCCCCCCCCCC(=O)N[C@H](C)[C@@H](O)c1ccccc1,Active,–,1,–,–
CCCCCCCCCCCCCC(=O)NCC(=O)c1ccc(C)cc1,Active,–,–,Active,–
CCCCCCCCCCCCCC(=O)NCC(=O)c1cccc(C)c1,Active,–,–,Active,–
CCCCCCCCCCCCCC(=O)NCC(O)c1ccc(C(C)(C)C)cc1 (racemic),Active,–,–,inactive,–
CCCCCCCCCCCCCC(=O)NCC(O)c1ccc(C)cc1 (racemic),Active,–,–,Active,inactive
CCCCCCCCCCCCCC(=O)NCC(O)c1ccc(CC)cc1 (racemic),Active,–,–,–,–
CCCCCCCCCCCCCC(=O)NCC(O)c1ccc(CCC)cc1 (racemic),Active,–,–,inactive,–
CCCCCCCCCCCCCC(=O)NCC(O)c1ccc(CCCC)cc1 (racemic),inactive,–,–,–,–
CCCCCCCCCCCCCC(=O)NCC(O)c1ccc(O)cc1 (racemic),Active,–,–,–,–
CCCCCCCCCCCCCC(=O)NCC(O)c1ccc(OC)cc1 (racemic),inactive,–,–,Active,–
CCCCCCCCCCCCCC(=O)NCC(O)c1cccc(C)c1 (racemic),Active,–,–,–,–
CCCCCCCCCCCCCC(=O)NCC(O)c1cccc(O)c1 (racemic),Active,–,–,–,–
CCCCCCCCCCCCCC(=O)NCC(O)c1cccc(OC)c1 (racemic),inactive,–,–,Active,–
CCCCCCCCCCCCCC(=O)NCC(O)c1ccccc1 (racemic),Active,–,–,–,–
CCCCCCCCCCCCCC(=O)NCC(O)c1cccnc1 (racemic),Active,–,–,Active,–
CCCCCCCCCCCCCC(=O)NCC(O)c1ccncc1 (racemic),Active,–,–,Active,–

# Results, then the molecule that gave them:
inhibition [1],IC50 (Acid ceramidase [2]) [µM],IC50 (Acid ceramidase [3]) [µM],inhibition [4],Activity [5],Structure (SMILES)
Active,10,–,–,–,CCCCCCCCCCCCCC(=O)N[C@H](CO)[C@H](O)c1ccc([N+](=O)[O-])cc1
Active,–,–,Active,–,CCCCCCCCCCCCS(=O)(=O)N[C@H](C)[C@@H](O)c1ccccc1
Active,–,–,–,–,CCCCCCCCCCCCS(=O)(=O)N[C@H](CO)[C@H](O)c1ccc([N+](=O)[O-])cc1
Active,–,–,Active,inactive,CCCCCCCCCCCCS(=O)(=O)NCC(O)c1ccc(C)cc1 (racemic)
Active,–,–,Active,–,CCCCCCCCCCCCS(=O)(=O)NCC(O)c1ccccc1 (racemic)
Active,–,–,Active,–,CCCCCCCCCCCCS(=O)(=O)NCC(O)c1cccnc1 (racemic)
Active,–,–,Active,–,CCCCCCCCCCCCS(=O)(=O)NCC(O)c1ccncc1 (racemic)
Active,–,–,Active,–,"CCCCCCCCCCCCCC(=O)NCC(O)c1ccc(C)cc1 (single isomer, unassigned; (-))"
Active,–,–,Active,–,CCCCCCCCCCCCCC(=O)NCC(O)c1ccc(C)cc1 (stereo in doubt)
